The NIST ThermoML archive (doi:10.1016/j.jct.2006.05.004)

Assays:
[1] = excess molar enthalpy (molar enthalpy of mixing); xn = mol fraction of the nth substance listed; conditions: 298.15 K, 101 kPa, Liquid
[2] = xn = mol fraction of the nth substance listed; conditions: 298.15 K, 101 kPa, Liquid

BrCCBr [1,2-dibromoethane] + COC(C)=O
Conditions | excess molar enthalpy [kcal/mol] | mass density [kg/m3]
[1], x2 = 0.0678 | 0.0234 | –
[1], x2 = 0.1329 | 0.0398 | –
[1], x2 = 0.2086 | 0.0538 | –
[1], x2 = 0.2791 | 0.062 | –
[1], x2 = 0.3449 | 0.0668 | –
[1], x2 = 0.4079 | 0.0679 | –
[1], x2 = 0.4651 | 0.0656 | –
[1], x2 = 0.5145 | 0.0616 | –
[1], x2 = 0.5219 | 0.0606 | –
[1], x2 = 0.559 | 0.0568 | –
[1], x2 = 0.5731 | 0.055 | –
[1], x2 = 0.6281 | 0.0477 | –
[1], x2 = 0.6875 | 0.0384 | –
[1], x2 = 0.7492 | 0.0287 | –
[1], x2 = 0.8149 | 0.0208 | –
[1], x2 = 0.8808 | 0.0122 | –
[1], x2 = 0.9429 | 0.00631 | –
[2], x2 = 0.0644 | – | 2093.03
[2], x2 = 0.1265 | – | 2019.85
[2], x2 = 0.186 | – | 1949.51
[2], x2 = 0.2463 | – | 1877.44
[2], x2 = 0.3093 | – | 1801.67
[2], x2 = 0.3675 | – | 1731.26
[2], x2 = 0.4309 | – | 1653.78
[2], x2 = 0.4879 | – | 1583.49
[2], x2 = 0.5507 | – | 1505.69
[2], x2 = 0.6003 | – | 1443.71
[2], x2 = 0.7248 | – | 1286.24
[2], x2 = 0.7776 | – | 1218.54
[2], x2 = 0.8338 | – | 1146.14
[2], x2 = 0.8868 | – | 1076.96
[2], x2 = 0.9443 | – | 1001.13

BrCCBr [1,2-dibromoethane] + CCCCC(=O)OC
Conditions | excess molar enthalpy [kcal/mol] | mass density [kg/m3]
[1], x2 = 0.0457 | 0.00222 | –
[1], x2 = 0.1054 | 0.00361 | –
[1], x2 = 0.1756 | 0.00289 | –
[1], x2 = 0.2495 | -0.000765 | –
[1], x2 = 0.3112 | -0.0059 | –
[1], x2 = 0.3523 | -0.0102 | –
[1], x2 = 0.3893 | -0.0141 | –
[1], x2 = 0.4631 | -0.0184 | –
[1], x2 = 0.5105 | -0.0206 | –
[1], x2 = 0.5845 | -0.0217 | –
[1], x2 = 0.6874 | -0.0198 | –
[1], x2 = 0.7978 | -0.0149 | –
[1], x2 = 0.9098 | -0.00805 | –
[2], x2 = 0.0413 | – | 2086.33
[2], x2 = 0.0834 | – | 2009.4
[2], x2 = 0.1257 | – | 1934.54
[2], x2 = 0.1717 | – | 1857.45
[2], x2 = 0.2221 | – | 1776.23
[2], x2 = 0.2644 | – | 1711.22
[2], x2 = 0.3124 | – | 1640.62
[2], x2 = 0.3717 | – | 1557.38
[2], x2 = 0.4812 | – | 1414.72
[2], x2 = 0.5471 | – | 1335.17
[2], x2 = 0.6142 | – | 1258.34
[2], x2 = 0.6822 | – | 1184.61
[2], x2 = 0.755 | – | 1109.85
[2], x2 = 0.833 | – | 1033.97
[2], x2 = 0.9091 | – | 963.97

BrCCCBr [1,3-dibromopropane] + CCCC(=O)OC
Conditions | excess molar enthalpy [kcal/mol] | mass density [kg/m3]
[1], x2 = 0.0571 | 0.00789 | –
[1], x2 = 0.1319 | 0.0136 | –
[1], x2 = 0.2164 | 0.0167 | –
[1], x2 = 0.3018 | 0.0163 | –
[1], x2 = 0.3823 | 0.0126 | –
[1], x2 = 0.4559 | 0.00676 | –
[1], x2 = 0.5207 | -0.000191 | –
[1], x2 = 0.5371 | -0.00325 | –
[1], x2 = 0.5718 | -0.00545 | –
[1], x2 = 0.6497 | -0.00978 | –
[1], x2 = 0.7433 | -0.0109 | –
[1], x2 = 0.8389 | -0.00956 | –
[1], x2 = 0.9316 | -0.00511 | –
[2], x2 = 0.0527 | – | 1904.53
[2], x2 = 0.1033 | – | 1844.63
[2], x2 = 0.1625 | – | 1775.48
[2], x2 = 0.2135 | – | 1716.63
[2], x2 = 0.268 | – | 1654.61
[2], x2 = 0.3273 | – | 1588.07
[2], x2 = 0.3844 | – | 1524.77
[2], x2 = 0.4397 | – | 1464.34
[2], x2 = 0.4966 | – | 1402.92
[2], x2 = 0.5597 | – | 1335.77
[2], x2 = 0.6194 | – | 1273.09
[2], x2 = 0.6773 | – | 1213.28
[2], x2 = 0.7401 | – | 1149.07
[2], x2 = 0.8089 | – | 1079.72
[2], x2 = 0.8623 | – | 1026.6
[2], x2 = 0.9397 | – | 950.76

BrCCCBr [1,3-dibromopropane] + CCC(=O)OC
Conditions | excess molar enthalpy [kcal/mol] | mass density [kg/m3]
[1], x2 = 0.0646 | 0.0167 | –
[1], x2 = 0.1354 | 0.0273 | –
[1], x2 = 0.2107 | 0.0338 | –
[1], x2 = 0.2845 | 0.037 | –
[1], x2 = 0.3517 | 0.0365 | –
[1], x2 = 0.4137 | 0.0336 | –
[1], x2 = 0.4627 | 0.03 | –
[1], x2 = 0.4703 | 0.0293 | –
[1], x2 = 0.5077 | 0.0264 | –
[1], x2 = 0.5202 | 0.0247 | –
[1], x2 = 0.5574 | 0.0222 | –
[1], x2 = 0.566 | 0.0202 | –
[1], x2 = 0.6073 | 0.0156 | –
[1], x2 = 0.6129 | 0.0138 | –
[1], x2 = 0.6726 | 0.00743 | –
[1], x2 = 0.7385 | 0.000502 | –
[1], x2 = 0.8065 | -0.00323 | –
[1], x2 = 0.873 | -0.00351 | –
[1], x2 = 0.9388 | -0.00215 | –
[2], x2 = 0.059 | – | 1909.4
[2], x2 = 0.1261 | – | 1841.06
[2], x2 = 0.1889 | – | 1776.8
[2], x2 = 0.243 | – | 1720.78
[2], x2 = 0.3657 | – | 1593.37
[2], x2 = 0.4328 | – | 1523.29
[2], x2 = 0.4901 | – | 1462.96
[2], x2 = 0.5464 | – | 1403.57
[2], x2 = 0.6165 | – | 1328.98
[2], x2 = 0.7214 | – | 1216.43
[2], x2 = 0.7712 | – | 1162.65
[2], x2 = 0.8235 | – | 1105.81
[2], x2 = 0.8863 | – | 1037.06
[2], x2 = 0.9375 | – | 980.57
